The source of these data is US20260137819A1 (Radionetics Oncology, Inc., priority 2022, published 2026).

SMILES strings stand for the structures.

In this assay the target is T1, human follicle-stimulating hormone receptor (FSHR) (Homo sapiens, UniProt P23945).
T1 construct: host or cells: CHO-K1
T1 sequence (P23945 18-695): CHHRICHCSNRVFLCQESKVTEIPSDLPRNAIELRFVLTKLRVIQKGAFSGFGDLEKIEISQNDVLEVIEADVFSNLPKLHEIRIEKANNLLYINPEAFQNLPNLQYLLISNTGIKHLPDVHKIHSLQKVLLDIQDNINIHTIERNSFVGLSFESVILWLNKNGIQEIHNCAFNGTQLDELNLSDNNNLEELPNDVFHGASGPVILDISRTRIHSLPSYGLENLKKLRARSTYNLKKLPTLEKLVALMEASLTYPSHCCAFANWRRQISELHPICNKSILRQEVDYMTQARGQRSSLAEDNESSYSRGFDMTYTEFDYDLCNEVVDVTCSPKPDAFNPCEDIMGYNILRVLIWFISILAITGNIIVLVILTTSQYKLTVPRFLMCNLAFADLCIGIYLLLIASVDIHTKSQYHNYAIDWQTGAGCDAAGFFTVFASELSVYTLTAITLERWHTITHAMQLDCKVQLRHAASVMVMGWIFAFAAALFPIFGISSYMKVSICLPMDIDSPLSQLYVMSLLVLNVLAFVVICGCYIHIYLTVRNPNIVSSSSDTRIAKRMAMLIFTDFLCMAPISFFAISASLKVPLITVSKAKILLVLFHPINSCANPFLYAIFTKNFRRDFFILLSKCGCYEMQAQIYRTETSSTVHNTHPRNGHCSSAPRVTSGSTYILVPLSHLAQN
The assay can be described thus: Measurement of agonist cAMP production by activation of human FSHR. To be noted: CHO-K1 human FSHR cells, 30 minutes at 37° C., HTRF cAMP kit; read-out: hFSHR Agonist cAMP EC50. Type of assay: cell-based. How it is done:
Measurement of agonist cAMP production by activation of human FSHR
Two days prior to the assay, 5,000 CHO—K1 human FSHR cells (Eurofins #95-0119C2) stably expressing the functional human follicle-stimulating hormone receptor were plated in a 96-well tissue culture-treated plate in growth media supplemented with the appropriate selection agent. […] The cells were incubated for 30 minutes at 37° C. (the final concentrations of the compound ranged from 0-10,000 nM). After the 30-minute incubation at 37° C., lysis buffer (HRTF CAMP kit, Cisbio #62AM5PEB)w as added directly to the cells and incubated for 30-minutes at room temperature. The diluted lysate was transferred and CAMP detection and visualization antibodies (HRTF CAMP kit, Cisbio #62AM5PEB) were added and incubated for 1-24 hours at room temperature. The time-resolved fluorescent signal was read with a Tecan M1000Pro (Tecan) multiplate reader. The intracellular cAMP concentrations were calculated by regression to a standard curve and were plotted vs. the concentration of the agonists. The concentration of test compound or FSH required to generate a half maximal response EC50 were calculated using standard curve-fitting methods. All data manipulations were performed using GraphPad Prism v9.3.1 (GraphPad, San Diego, CA).
(Cyclic AMP is a second messenger, typically raised through Gs and lowered through Gi signalling.)
Regarding `COc1cc2c(cc1-c1cccc(NC(=O)CCOCCOCCNC(=O)C3OC(CNC(=O)CN4CCN(CC(=O)O)CCN(CC(=O)O)CCN(CC(=O)O)CC4)C(O)C(O)C3O)c1)-c1c(c(C(=O)N3CCOCC3(C)C)nn1-c1cc(Cl)cc(Cl)c1)CO2` [Compound 21, 2,2′,2″-(10-(2-((((2S,3R,4R,5R,6S)-6-((2-(2-(3-((3-(1-(3,5-dichlorophenyl)-3-(3,3-dimethylmorpholine-4-carbonyl)-7-methoxy-1,4-dihydrochromeno|4,3-clpyrazol-8-yl)phenyl)amino)-3-oxopropoxy)ethoxy)ethyl)carbamoyl)-3,4,5-trihydroxytetrahydro-2H-pyran-2-yl)methyl)amino)-2-oxoethyl)-1,4,7,10-tetraazacyclododecane-1,4,7-triyl)triacetic acid], the EC50 (commonly the concentration that produces a half-maximal response) was less than 0.01 µM. Consider `COc1cc2c(cc1-c1cccc(NC(=O)CN(C)C(=O)CN(C)C(=O)CN(C)C(=O)CN(C)C(=O)CN(C)C(=O)CCNC(=O)CN3CCN(CC(=O)O)CCN(CC(=O)O)CCN(CC(=O)O)CC3)c1)-c1c(c(C(=O)N3CCOCC3(C)C)nn1-c1cc(Cl)cc(Cl)c1)CO2` [Compound 22], for which the EC50 was less than 0.01 µM. For `COc1cc2c(cc1-c1cccc(NC(=O)NCCNC(=O)[C@H](N)CCCCNC(=O)CN3CCN(CC(=O)O)CCN(CC(=O)O)CCN(CC(=O)O)CC3)c1)-c1c(c(C(=O)N3CCOCC3(C)C)nn1-c1cc(Cl)cc(Cl)c1)CO2` [Compound 23A, indium (III) (R)-2,2′,2″-(10-(2-((5-amino-6-((2-(3-(3-(1-(3,5-dichlorophenyl)-3-(3,3-dimethylmorpholine-4-carbonyl)-7-methoxy-1,4-dihydrochromeno[4,3-c]pyrazol-8-yl)phenyl)ureido)ethyl)amino)-6-oxohexyl)amino)-2-oxoethyl)-1,4,7,10-tetraazacyclododecane-1,4,7-triyl)triacetate] the value was 0.01 to 0.1 µM. For the compound `COc1cc2c(cc1-c1cccc(NC(=O)NCCNC(=O)[C@H](N)CCCCNC(=O)CN3CCN(CC(=O)O)CCN(CC(=O)O)CCN(CC(=O)O)CC3)c1)-c1c(c(C(=O)N3CCOCC3(C)C)nn1-c1cc(Cl)cc(Cl)c1)CO2` [Compound 23], the EC50 was less than 0.01 µM. In the case of `COc1cc2c(cc1-c1cccc(NC(=O)NCCNc3c(NCCNC(=O)CN4CCN(CC(=O)O)CCN(CC(=O)O)CCN(CC(=O)O)CC4)c(=O)c3=O)c1)-c1c(c(C(=O)N3CCOCC3(C)C)nn1-c1cc(Cl)cc(Cl)c1)CO2` [Compound 24, 2,2′,2″-(10-(2-((2-((2-((2-(3-(3-(1-(3,5-dichlorophenyl)-3-(3,3-dimethylmorpholine-4-carbonyl)-7-methoxy-1,4-dihydrochromeno|4,3-c|pyrazol-8-yl)phenyl)ureido)ethyl)amino)-3,4-dioxocyclobut-1-en-1-yl)amino)ethyl)amino)-2-oxoethyl)-1,4,7,10-tetraazacyclododecane-1,4,7-triyl)triacetic acid], the EC50 was in the range of 0.01 to 0.1 µM.

Regarding `COc1cc2c(cc1-c1cccc(NC(=O)NCCNc3c(NCCNC(=O)CN4CCN(CC(=O)O)CCN(CC(=O)O)CCN(CC(=O)O)CC4)c(=O)c3=O)c1)-c1c(c(C(=O)N3CCOCC3(C)C)nn1-c1cc(Cl)cc(Cl)c1)CO2` [Compound 24A, indium (III) 2,2′,2″-(10-(2-((2-((2-((2-(3-(3-(1-(3,5-dichlorophenyl)-3-(3,3-dimethylmorpholine-4-carbonyl)-7-methoxy-1,4-dihydrochromeno[4,3-c]pyrazol-8-yl)phenyl)ureido)ethyl)amino)-3,4-dioxocyclobut-1-en-1-yl)amino)ethyl)amino)-2-oxoethyl)-1,4,7,10-tetraazacyclododecane-1,4,7-triyl)triacetate], the EC50 is less than 0.01 µM. On to `COCCOCCOCCOCCOCCOCCC(=O)N[C@H](CC(=O)N1CC2(CCCN2C(=O)CNC(=O)CN2CCN(CC(=O)O)CCN(CC(=O)O)CCN(CC(=O)O)CC2)C1)C(=O)Nc1cccc(-c2cc3c(cc2OC)OCc2c(C(=O)N4CCOCC4(C)C)nn(-c4cc(Cl)cc(Cl)c4)c2-3)c1` [Compound 25, (R)-2,2′,2″-(10-(2-((2-(2-(22-((3-(1-(3,5-dichlorophenyl)-3-(3,3-dimethylmorpholine-4-carbonyl)-7-methoxy-1,4-dihydrochromeno[4,3-c]pyrazol-8-yl)phenyl)carbamoyl)-20-oxo-2,5,8,11,14,17-hexaoxa-21-azatetracosan-24-oyl)-2,5-diazaspiro[3.4]octan-5-yl)-2-oxoethyl)amino)-2-oxoethyl)-1,4,7,10-tetraazacyclododecane-1,4,7-triyl)triacetic acid], for which the EC50 was more than 0.1 µM. With `COc1cc2c(cc1-c1cccc(NC(=O)CCOCCOCCOCCOCCNC(=O)[C@@H](CS(=O)(=O)O)NC(=O)CN3CCN(CC(=O)O)CCN(CC(=O)O)CCN(CC(=O)O)CC3)c1)-c1c(c(C(=O)N3CCOCC3(C)C)nn1-c1cc(Cl)cc(Cl)c1)CO2` [Compound 26, (S)-2,2′,2″-(10-(21-((3-(1-(3,5-dichlorophenyl)-3-(3,3-dimethylmorpholine-4-carbonyl)-7-methoxy-1,4-dihydrochromeno[4,3-c]pyrazol-8-yl)phenyl)amino)-2,5,21-trioxo-4-(sulfomethyl)-9,12,15,18-tetraoxa-3,6-diazahenicosyl)-1,4,7,10-tetraazacyclododecane-1,4,7-triyl)triacetic acid], the concentration for a half-maximal effect (EC50) was less than 0.01 µM. `COc1cc2c(cc1-c1cccc(NC(=O)CCOCCOCCOCCOCCNC(=O)[C@H](CS(=O)(=O)O)NC(=O)CN3CCN(CC(=O)O)CCN(CC(=O)O)CCN(CC(=O)O)CC3)c1)-c1c(c(C(=O)N3CCOCC3(C)C)nn1-c1cc(Cl)cc(Cl)c1)CO2` [Compound 26A, indium (III) (R)-2,2′,2″-(10-(21-((3-(1-(3,5-dichlorophenyl)-3-(3,3-dimethylmorpholine-4-carbonyl)-7-methoxy-1,4-dihydrochromeno[4,3-c]pyrazol-8-yl)phenyl)amino)-2,5,21-trioxo-4-(sulfomethyl)-9,12,15, 18-tetraoxa-3,6-diazahenicosyl)-1,4,7,10-tetraazacyclododecane-1,4,7-triyl)triacetate]: the 50% effective concentration (EC50) is less than 0.01 µM. For the compound `COc1cc2c(cc1-c1cccc(NC(=O)CCOCCOCCOCCOCCNC(=O)[C@@H](CCC(=O)O)NC(=O)CN3CCN(CC(=O)O)CCN(CC(=O)O)CCN(CC(=O)O)CC3)c1)-c1c(c(C(=O)N3CCOCC3(C)C)nn1-c1cc(Cl)cc(Cl)c1)CO2` [Compound 27, (R)-2,2′,2″-(10-(4-(2-carboxyethyl)-21-((3-(1-(3,5-dichlorophenyl)-3-(3,3-dimethylmorpholine-4-carbonyl)-7-methoxy-1,4-dihydrochromeno|4,3-clpyrazol-8-yl)phenyl)amino)-2,5,21-trioxo-9,12,15,18-tetraoxa-3,6-diazahenicosyl)-1,4,7,10-tetraazacyclododecane-1,4,7-triyl)triacetic acid], the concentration giving a half-maximal response (EC50) is less than 0.01 µM. Consider `COc1cc2c(cc1-c1cccc(NC(=O)CCOCCOCCOCCOCCNC(=O)CCC(C(=O)O)N3CCN(CC(=O)O)CCN(CC(=O)O)CCN(CC(=O)O)CC3)c1)-c1c(c(C(=O)N3CCOCC3(C)C)nn1-c1cc(Cl)cc(Cl)c1)CO2` (centres unmarked) [Compound 28], for which the EC50 was less than 0.01 µM.
